The results in this text go back to patent publication US10173991B2, “Sulfone amide linked benzothiazole inhibitors of endothelial lipase” (BRISTOL-MYERS SQUIBB COMPANY, priority 2014, dated 2019).

Each structure is given as a SMILES string.

The target in the first test is Endothelial lipase (EL) (Homo sapiens (Human), UniProt Q9Y5X9). Kind of test: Endothelial lipase (EL) enzymatic assay with fluorescent substrate A10070 in DMPG vesicles.
Chain of Endothelial lipase (EL) (Q9Y5X9 21-500): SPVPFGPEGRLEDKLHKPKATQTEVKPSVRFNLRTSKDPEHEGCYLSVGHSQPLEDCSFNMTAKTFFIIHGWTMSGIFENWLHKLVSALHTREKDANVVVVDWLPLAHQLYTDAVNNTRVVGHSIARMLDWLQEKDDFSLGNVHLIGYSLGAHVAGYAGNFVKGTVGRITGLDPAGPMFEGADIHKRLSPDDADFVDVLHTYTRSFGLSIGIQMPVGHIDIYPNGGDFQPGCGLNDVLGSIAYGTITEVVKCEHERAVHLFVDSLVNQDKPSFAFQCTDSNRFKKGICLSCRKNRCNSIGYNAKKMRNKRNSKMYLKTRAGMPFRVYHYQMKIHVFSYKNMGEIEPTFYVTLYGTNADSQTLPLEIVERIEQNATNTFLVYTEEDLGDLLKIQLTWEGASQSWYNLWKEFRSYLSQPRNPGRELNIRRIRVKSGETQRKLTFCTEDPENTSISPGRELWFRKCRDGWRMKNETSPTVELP
Conditions: not given
In kind it is biochemical. As for the experimental part:
Endothelial lipase (EL) and hepatic lipase (HL) activities were measured using a fluorescent substrate, A10070, (Invitrogen, CA) doped into an artificial vesicle containing DMPG (Avanti Polar Lipids) as the excipient. Vesicles were prepared by combining 571 μL of 29 mM DMPG in a 1:1 mixture of MeOH and CHCl3 with 2000 μL of 1 mM A10070 in a 1:1 mixture of MeOH and CHCl3. The mixture was dried under nitrogen in multiple vials then resuspended in 20 mL total volume of 50 mM HEPES pH 8.0 buffer containing 50 mM NaCl and 0.2 mM EDTA. The sample was allowed to sit at room temperature for 15 min and then was sonicated 3×4 mins on ice with a Branson Sonicator using duty cycle 1. This preparation provides vesicles with a mole fraction of 0.11 for the FRET substrate.
The enzymatic assay was measured using 384-well white Optiplates. Each well contained 20 μL of assay buffer (50 mM HEPES pH 8.0, 50 mM NaCl and 1 mM CaCl2) and 0.25 μL of a DMSO solution containing a compound of interest. EL or HL (10 μL) was added and allowed to incubate with the compound for 30 min at 37° C. The source of EL was conditioned media obtained from HT-1080 cells that were transformed using RAGE technology (Athersys) to overexpress endogenous EL, and HL was partially purified from conditioned media obtained from COS cells overexpressing HL. The reaction was started by the addition of 10 μL of a 1:10 dilution of vesicles. The final total reaction volume was […]. The reaction rates were measured on a Gemini plate reader with an excitation wavelength of 490 nm and an emission wavelength of 530 nm. Readings were taken over a period of 60 minutes, and the slope between 300 and 900 secs of the readout was used to calculate the rate of the reaction.
Usually IC50 stands for the point on the concentration scale where inhibition reaches its midpoint. Low values mean inhibition by little substance, high ones a need for much substance. `COC(=O)Nc1ccc(-c2cc3sc(C(C(=O)NCC(=O)NC4CC4)S(=O)(=O)CC4CC4)nc3cc2F)cc1` (stereo not drawn) [Example 2, methyl N-{4-[2-({[(cyclopropyl-carbamoyl)methyl]carbamoyl} (cyclopropyl-methanesulfonyl)methyl)-5-fluoro-1,3-benzothiazol-6-yl]phenyl} carbamate]: the concentration for half-maximal inhibition (IC50) was determined as 3 nM.

With `CS(=O)(=O)C(C(=O)NCC(=O)NC1CC1)c1nc2cc(F)c(-c3ccc(NC(N)=O)cc3)cc2s1` (stereo not drawn) [Example 3, 2-{6-[4-(carbamoyl-amino)phenyl]-5-fluoro-1,3-benzothiazol-2-yl}-N-[(cyclopropyl-carbamoyl)methyl]-2-methanesulfonyl-acetamide], 3 nM corresponded to half-maximal inhibition (IC50).

As to `COCCS(=O)(=O)C(C(=O)NCC(=O)NC1CC1)c1nc2cc(F)c(-c3ccc(NC(N)=O)cc3)cc2s1` (stereo not drawn) [Example 4, 2-{6-[4-(carbamoyl-amino)phenyl]-5-fluoro-1,3-benzothiazol-2-yl}-N-[(cyclopropyl-carbamoyl)methyl]-2-(2-methoxy-ethanesulfonyl) acetamide], it took 9 nM to reach half-maximal inhibition (IC50).

`CC(C)S(=O)(=O)C(C(=O)NCC(=O)NC1CC1)c1nc2cc(F)c(-c3ccc(NC(N)=O)cc3)cc2s1` (stereo not drawn) [Example 5, 2-{6-[4-(carbamoyl-amino)phenyl]-5-fluoro-1,3-benzothiazol-2-yl}-N-[(cyclopropyl-carbamoyl)methyl]-2-(propane-2-sulfonyl) acetamide] gave a half-inhibitory concentration (IC50) of 9 nM.

In the case of `CN(C)C(=O)Nc1ccc(-c2cc3sc(C(C(=O)NCC(=O)NC4CC4)S(=O)(=O)CCC(F)(F)F)nc3cc2F)cc1` (stereo not drawn) [Example 6, N-[(cyclopropyl-carbamoyl)methyl]-2-(6-{4-[(dimethyl-carbamoyl)amino]phenyl}-5-fluoro-1,3-benzothiazol-2-yl)-2-(3,3,3-trifluoropropane-sulfonyl) acetamide], the IC50 is 3 nM.

`NC(=O)Nc1ccc(-c2cc3sc(C(C(=O)NCC(=O)NC4CC4)S(=O)(=O)CCC(F)(F)F)nc3cc2F)cc1` (stereo not drawn) [Example 7, 2-{6-[4-(carbamoyl-amino)phenyl]-5-fluoro-1,3-benzothiazol-2-yl}-N-[(cyclopropyl-carbamoyl)methyl]-2-(3,3,3-trifluoropropane-sulfonyl) acetamide] showed an IC50 of 5 nM.

`CS(=O)(=O)C(C(=O)NCC(=O)NC1CC1)c1nc2cc(-c3ccc(NC(=O)OCc4ccccc4)cc3)c(F)cc2s1` (stereo not drawn) [Example 8, benzyl N-{4-[2-({[(cyclopropyl-carbamoyl)methyl]carbamoyl} (methane-sulfonyl)methyl)-6-fluoro-1,3-benzothiazol-5-yl]phenyl} carbamate] returned an IC50 of 1 nM.

`O=C(CNC(=O)C(c1nc2cc(-c3ccc(NC(=O)OCc4ccccc4)cc3)c(F)cc2s1)S(=O)(=O)CCC(F)(F)F)NC1CC1` (stereo not drawn) [Example 9, benzyl N-{4-[2-({[(cyclopropyl-carbamoyl)methyl]carbamoyl} (3,3,3-trifluoro-propanesulfonyl)methyl)-6-fluoro-1,3-benzothiazol-5-yl]phenyl} carbamate]: half-maximal inhibition (IC50) was put at 1 nM.

`COCCS(=O)(=O)C(C(=O)NCC(=O)NC1CC1)c1nc2cc(-c3ccc(NC(=O)OCc4ccccc4)cc3)c(F)cc2s1` (stereo not drawn) [Example 10, benzyl N-{4-[2-({[(cyclopropyl-carbamoyl)methyl]carbamoyl}(2-methoxyethane-sulfonyl)methyl)-6-fluoro-1,3-benzothiazol-5-yl]phenyl} carbamate] registered an IC50 of 1 nM.

`O=C(CNC(=O)C(c1nc2cc(-c3ccc(NC(=O)OCc4ccccc4)cc3)c(F)cc2s1)S(=O)(=O)C1CC1)NC1CC1` (stereo not drawn) [Example 11, benzyl N-(4-{2-[(cyclopropane-sulfonyl) ({[(cyclopropyl-carbamoyl)methyl]carbamoyl})methyl]6-fluoro-1,3-benzothiazol-5-yl}phenyl) carbamate] had an IC50 of 1 nM.

For the compound `O=C(CNC(=O)C(c1nc2cc(-c3ccc(F)nc3)ccc2s1)S(=O)(=O)CCC(F)(F)F)NC1CC1` (stereo not drawn) [Example 12, N-[(cyclopropyl-carbamoyl)methyl]-2-[5-(6-fluoropyridin-3-yl)-1,3-benzothiazol-2-yl]-2-(3,3,3-trifluoropropane-sulfonyl) acetamide], the IC50 is 7 nM.

The compound `O=C(CNC(=O)C(c1nc2cc(-c3ccc(F)nc3)ccc2s1)S(=O)(=O)Cc1ccc(F)cc1)NC1CC1` (stereo not drawn) [Example 13, N-[(cyclopropyl-carbamoyl)methyl]-2-[(4-fluorophenyl)methanesulfonyl]-2-[5-(6-fluoropyridin-3-yl)-1,3-benzothiazol-2-yl]acetamide] had an IC50 of 15 nM.

Turning to `O=C(CNC(=O)C(c1nc2cc(-c3ccc(F)nc3)ccc2s1)S(=O)(=O)Cc1ccccc1)NC1CC1` (stereo not drawn) [Example 14, N-[(cyclopropyl-carbamoyl)methyl]-2-[5-(6-fluoropyridin-3-yl)-1,3-benzothiazol-2-yl]-2-phenylmethane-sulfonylacetamide], it took 23 nM to reach half-maximal inhibition (IC50).

For `O=C(CNC(=O)C(c1nc2cc(-c3ccc(F)nc3)ccc2s1)S(=O)(=O)Cc1ccc(F)nc1)NC1CC1` (stereo not drawn) [Example 15, N-[(cyclopropyl-carbamoyl)methyl]-2-[5-(6-fluoropyridin-3-yl)-1,3-benzothiazol-2-yl]-2-[(6-fluoropyridin-3-yl)methanesulfonyl] acetamide], 29 nM corresponded to half-maximal inhibition (IC50).

The compound `CC(C)S(=O)(=O)C(C(=O)NCC(=O)NC1CC1)c1nc2cc(-c3ccc(F)nc3)ccc2s1` (stereo not drawn) [Example 16, N-[(cyclopropyl-carbamoyl)methyl]-2-[5-(6-fluoropyridin-3-yl)-1,3-benzothiazol-2-yl]-2-(propane-2-sulfonyl) acetamide] had a 50% inhibitory concentration (IC50) of 39 nM.

In turn, `O=C(CNC(=O)C(c1nc2cc(-c3ccc(F)nc3)ccc2s1)S(=O)(=O)Cc1ccc(C(F)(F)F)cc1)NC1CC1` (stereo not drawn) [Example 17, N-[(cyclopropyl-carbamoyl)methyl]-2-[5-(6-fluoropyridin-3-yl)-1,3-benzothiazol-2-yl]-2-{[4-(trifluoromethyl)phenyl]methanesulfonyl} acetamide] returned an IC50 of 46 nM.

On to `O=C(CNC(=O)C(c1nc2ccc(-c3ccc(F)nc3)cc2s1)S(=O)(=O)Cc1ccccc1F)NC1CC1` (stereo not drawn) [Example 18, N-[(cyclopropyl-carbamoyl)methyl]-2-[(2-fluorophenyl)methanesulfonyl]-2-[6-(6-fluoropyridin-3-yl)-1,3-benzothiazol-2-yl]acetamide], for which the midpoint of inhibition, the IC50, lay at 253 nM.

Compound `COc1ccc(OCCCS(=O)(=O)C(C(=O)NCC(=O)NC2CC2)c2nc3ccc(-c4ccc(F)nc4)cc3s2)cc1` (stereo not drawn) [Example 19, N-[(cyclopropyl-carbamoyl)methyl]-2-[6-(6-fluoropyridin-3-yl)-1,3-benzothiazol-2-yl]-2-[3-(4-methoxyphenoxy)propanesulfonyl] acetamide] gave an IC50 of 7 nM.

In turn, `N#Cc1cccc(CS(=O)(=O)C(C(=O)NCC(=O)NC2CC2)c2nc3ccc(-c4ccc(F)nc4)cc3s2)c1` (stereo not drawn) [Example 20, 2-[(3-cyanophenyl)methanesulfonyl]-N-[(cyclopropyl-carbamoyl)methyl]-2-[6-(6-fluoropyridin-3-yl)-1,3-benzothiazol-2-yl]acetamide] came in with an IC50 of 46 nM.

`Cc1ncc(-c2ccc3nc(C(C(=O)NCC(=O)NC4CC4)S(=O)(=O)Cc4cccc(C#N)c4)sc3c2)cn1` (stereo not drawn) [Example 21, 2-[(3-cyanophenyl)methanesulfonyl]-N-[(cyclopropyl-carbamoyl)methyl]-2-[6-(2-methylpyrimidin-5-yl)-1,3-benzothiazol-2-yl]acetamide] had an IC50 of 145 nM.

As to `CC(C)n1cc(-c2cc3sc(C(C(=O)NCC(=O)NC4CC4)S(=O)(=O)C(C)C)nc3cc2F)ccc1=O` (stereo not drawn) [Example 22, N-[(cyclopropyl-carbamoyl)methyl]-2-{5-fluoro-6-[6-oxo-1-(propan-2-yl)-1,6-dihydropyridin-3-yl]-1,3-benzothiazol-2-yl}-2-(propane-2-sulfonyl) acetamide], the IC50 stood at 37 nM.

Consider `COC(=O)N(C)c1ccc(-c2ccc3nc(C(C(=O)NCC(=O)NC4CC4)S(C)(=O)=O)sc3c2)cc1` (stereo not drawn) [Example 23, methyl N-{4-[2-({[(cyclopropyl-carbamoyl)methyl]carbamoyl} (methanesulfonyl)methyl)-1,3-benzothiazol-6-yl]phenyl}-N-methylcarbamate], for which the IC50 was 14 nM.

Turning to `COC(=O)N(C)c1ccc(-c2ccc3nc(C(C(=O)NCC(=O)NC4CC4)S(=O)(=O)CCC(F)(F)F)sc3c2)cc1` (stereo not drawn) [Example 24, methyl N-{4-[2-({[(cyclopropyl-carbamoyl)methyl]carbamoyl} (3,3,3-trifluoropropane-sulfonyl)methyl)-1,3-benzothiazol-6-yl]phenyl}-N-methylcarbamate], the IC50 came to 6 nM.

Still in this test, the particulars now being: EL from conditioned media of HT-1080 cells; 30 min preincubation at 37° C.
`CS(=O)(=O)C(C(=O)NCC(=O)NC1CC1)c1nc2cc(F)c(-c3ccc(NC(=O)OCc4ccccc4)cc3)cc2s1` (stereo not drawn) [Example 1, Benzyl N-{4-[2-({[(cyclopropylcarbamoyl)methyl]carbamoyl}(methanesulfonyl)methyl)-5-fluoro-1,3-benzothiazol-6-yl]phenyl}carbamate] showed an IC50 of 3 nM.
